Among the data in PubChem BioAssay AID296 (DTP/NCI, 2004) are T/C values, retold here.

The test relates to MX-1 breast xenograft, nude mice, tumor weight T/C. Description: NCI In Vivo Anticancer Drug Screen. Data for tumor model Human Mammary Carcinoma MX-1 Xenograft (intrarenal inoculation) in NU/NU Swiss (nude) mice. The conditions noted are these: endpoint: mean tumor weight change, higher = larger tumour. The method, boiled down:
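Antitumour effect measured in vivo against vehicle controls, expressed as T/C.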

Where “and” joins values, the source holds several entries; their conditions need not be identical. Identical values can stand only once. Records with an inconclusive call do not appear.

With `CNC(=O)OCc1c(COC(=O)NC)c(C)n(-c2ccc(OC)cc2)c1C`, the T/C by setting is: (dose: 50.0 mg/kg/injection, schedule: Q01DX010 (sc), vehicle: Klucel (hydroxypropylcellulose) (HPC)) 41 % of control; (dose: 50.0 mg/kg/injection, schedule: Q04DX003 (sc), vehicle: Klucel (hydroxypropylcellulose) (HPC)) 110 % of control; (dose: 100.0 mg/kg/injection, schedule: Q01DX010 (sc), vehicle: Klucel (hydroxypropylcellulose) (HPC)) 9 % of control; (dose: 100.0 mg/kg/injection, schedule: Q04DX003 (sc), vehicle: Klucel (hydroxypropylcellulose) (HPC)) 46 % of control; (dose: 200.0 mg/kg/injection, schedule: Q01DX010 (sc), vehicle: Klucel (hydroxypropylcellulose) (HPC)) -52 % of control; (dose: 400.0 mg/kg/injection, schedule: Q01DX010 (sc), vehicle: Klucel (hydroxypropylcellulose) (HPC)) -61 % of control. For the same compound, the T/C is, setting by setting: (dose: 800.0 mg/kg/injection, schedule: Q04DX003 (sc), vehicle: Klucel (hydroxypropylcellulose) (HPC)) -100 % of control; (dose: 1600.0 mg/kg/injection, schedule: Q04DX003 (sc), vehicle: Klucel (hydroxypropylcellulose) (HPC)) -100 % of control.
`COC(=O)Nc1nc2ccc(C3(c4ccc(F)cc4)OCCO3)cc2[nH]1`: the T/C by setting is: (dose: 50.0 mg/kg/injection, schedule: Q04DX003 (sc), vehicle: saline with Tween-80) 100 % of control; (dose: 100.0 mg/kg/injection, schedule: Q04DX003 (sc), vehicle: saline with Tween-80) 79 % of control.
As for `C[C@@]12C(=O)OC(=O)[C@]1(C)[C@H]1CC[C@@H]2O1`, the T/C runs as follows: (dose: 1.25 mg/kg/injection, schedule: Q04DX003 (sc), vehicle: Klucel (hydroxypropylcellulose) (HPC)) 29 % of control; (dose: 2.5 mg/kg/injection, schedule: Q04DX003 (sc), vehicle: Klucel (hydroxypropylcellulose) (HPC)) 74 % of control.
For the compound `O=C1OC(=O)[C@H]2[C@@H]1[C@H]1C=C[C@@H]2OC1=O`, the T/C is, setting by setting: (dose: 25.0 mg/kg/injection, schedule: Q04DX003 (sc), vehicle: suspension in saline) 83 % of control; (dose: 50.0 mg/kg/injection, schedule: Q04DX003 (sc), vehicle: suspension in saline) 101 % of control; (dose: 100.0 mg/kg/injection, schedule: Q04DX003 (sc), vehicle: suspension in saline) 89 % of control; (dose: 150.0 mg/kg/injection, schedule: Q04DX003 (sc), vehicle: suspension in saline) 91 % of control; (dose: 200.0 mg/kg/injection, schedule: Q04DX003 (sc), vehicle: suspension in saline) 90 % of control; (dose: 300.0 mg/kg/injection, schedule: Q04DX003 (sc), vehicle: suspension in saline) 109 % of control. For the same compound, where the note is “dose: 600.0 mg/kg/injection, schedule: Q04DX003 (sc), vehicle: suspension in saline”, the T/C is 89 % of control.
Consider `Cn1cnc([N+](=O)[O-])c1[Se]c1nc(N)nc2nc[nH]c12`, for which the T/C (dose: 50.0 mg/kg/injection, schedule: Q01DX010 (sc), vehicle: water) is 71 % of control.
As for `Cc1c2c(ccc3ccccc32)c[n+]2ccccc12`, the T/C reads like this: (dose: 3.13 mg/kg/injection, schedule: Q01DX010 (sc), vehicle: saline) 101 % of control; (dose: 6.25 mg/kg/injection, schedule: Q01DX010 (sc), vehicle: saline) 82 % of control; (dose: 12.5 mg/kg/injection, schedule: Q01DX010 (sc), vehicle: saline) 25 % of control.
Regarding `CN(C)CCN1C(=O)c2cccc3cc(N)cc(c23)C1=O`, the T/C is 80 % of control (dose: 16.0 mg/kg/injection, schedule: Q04DX003 (sc), vehicle: saline with Tween-80) and 78 % of control (dose: 32.0 mg/kg/injection, schedule: Q04DX003 (sc), vehicle: saline with Tween-80).
As to `O=Cc1ccc(O)c(O)c1`, under “dose: 300.0 mg/kg/injection, schedule: Q04DX003 (sc), vehicle: saline with Tween-80”, the T/C is 181 % of control.
As for `O=C(O)c1c2c(nc3ccccc13)Cc1ccccc1-2`, the T/C reads like this: (dose: 25.0 mg/kg/injection, schedule: Q01DX010 (sc), vehicle: water) 108 % of control; (dose: 200.0 mg/kg/injection, schedule: Q01DX010 (sc), vehicle: water) 46 % of control.
Consider `COc1cccc2c1C(=O)c1c(O)c3c(c(O)c1C2=O)C[C@@](O)(C(=O)CO)C[C@@H]3OC1CC(N)CC(C)O1` (stereo partly specified), for which the T/C by setting is: (dose: 0.19 mg/kg/injection, schedule: Q01DX010 (sc), vehicle: water) 43 % of control; (dose: 0.37 mg/kg/injection, schedule: Q01DX010 (sc), vehicle: water) 51 % of control; (dose: 0.75 mg/kg/injection, schedule: Q01DX010 (sc), vehicle: water) 61 % of control; (dose: 1.5 mg/kg/injection, schedule: Q01DX010 (sc), vehicle: water) 59 % of control.
As for `COc1cc2cc3c4cc(OC)c(OC)cc4cc[n+]3c(C)c2cc1OC` (tested in a mixture with another compound), the T/C runs as follows: (dose: 75.0 mg/kg/injection, schedule: Q04DX003 (sc), vehicle: saline) 79 % of control; (dose: 150.0 mg/kg/injection, schedule: Q04DX003 (sc), vehicle: saline) 60 % of control.
`CCCCCCCCSC1=C(Cl)C(=O)C(OC)=C(OC)C1=O`: the T/C is, setting by setting: (dose: 36.0 mg/kg/injection, schedule: Q04DX003 (sc), vehicle: saline with Tween-80) 113 % of control; (dose: 72.0 mg/kg/injection, schedule: Q04DX003 (sc), vehicle: saline with Tween-80) 109 % of control; (dose: 144.0 mg/kg/injection, schedule: Q04DX003 (sc), vehicle: saline with Tween-80) 90 % of control.
As to `OC(CBr)C(O)C(O)C(O)CBr` (stereo unspecified), the T/C reads like this: (dose: 15.0 mg/kg/injection, schedule: Q01DX010 (sc), vehicle: Klucel (hydroxypropylcellulose) (HPC)) 39 % of control and 42 % of control; (dose: 800.0 mg/kg/injection, schedule: Q01DX010 (sc), vehicle: Klucel (hydroxypropylcellulose) (HPC)) -100 % of control; (dose: 1600.0 mg/kg/injection, schedule: Q01DX010 (sc), vehicle: Klucel (hydroxypropylcellulose) (HPC)) -87 % of control.
For the compound `CCOC(=O)c1ccc(NC(=O)Nc2nncs2)cc1`, the T/C by setting is: (dose: 50.0 mg/kg/injection, schedule: Q01DX010 (sc), vehicle: distilled water + Tween-80) 44 % of control; (dose: 100.0 mg/kg/injection, schedule: Q01DX010 (sc), vehicle: saline with Tween-80) 65 % of control; (dose: 200.0 mg/kg/injection, schedule: Q01DX010 (sc), vehicle: saline with Tween-80) 62 % of control; (dose: 400.0 mg/kg/injection, schedule: Q01DX010 (sc), vehicle: saline with Tween-80) 65 % of control; (dose: 800.0 mg/kg/injection, schedule: Q01DX010 (sc), vehicle: distilled water + Tween-80) 120 % of control; (dose: 800.0 mg/kg/injection, schedule: Q01DX010 (sc), vehicle: saline with Tween-80) 37 % of control.
As to `CC[C@@H](C)[C@@H]1NC(=O)C(NC(=O)C(CC(C)C)N(C)C(=O)C2CCCN2C(=O)C(C)O)C(C)OC(=O)C(Cc2ccc(OC)cc2)N(C)C(=O)C2CCCN2C(=O)C(CC(C)C)NC(=O)C(C)C(=O)C(C(C)C)OC(=O)C[C@H]1O` (stereo partly specified), the T/C was 91 % of control (dose: 300.0 micrograms/kg/injection, schedule: Q04DX003 (sc), vehicle: distilled water + alcohol); 157 % of control (dose: 600.0 micrograms/kg/injection, schedule: Q04DX003 (sc), vehicle: distilled water + alcohol); 27 % of control (dose: 1200.0 micrograms/kg/injection, schedule: Q04DX003 (sc), vehicle: distilled water + alcohol).
In the case of `CN1CCN(c2ccc3nc(-c4ccc5nc(-c6ccc(O)cc6)[nH]c5c4)[nH]c3c2)CC1`, the T/C (dose: 100.0 mg/kg/injection, schedule: Q04DX003 (sc), vehicle: saline) is 69 % of control; the T/C (dose: 225.0 mg/kg/injection, schedule: Q04DX003 (sc), vehicle: saline) was 100 % of control; the T/C (dose: 225.0 mg/kg/injection, schedule: Q04DX003 (sc), vehicle: suspension in saline) is 102 % of control; the T/C (dose: 250.0 mg/kg/injection, schedule: Q04DX003 (sc), vehicle: suspension in saline) is 67 % of control; the T/C (dose: 400.0 mg/kg/injection, schedule: Q04DX003 (sc), vehicle: saline) was 52 % of control; the T/C (dose: 500.0 mg/kg/injection, schedule: Q04DX003 (sc), vehicle: saline) is 123 % of control. For the same compound, the T/C (dose: 800.0 mg/kg/injection, schedule: Q04DX003 (sc), vehicle: suspension in saline) is 176 % of control; the T/C (dose: 1000.0 mg/kg/injection, schedule: Q04DX003 (sc), vehicle: saline) is 69 % of control; the T/C (dose: 1000.0 mg/kg/injection, schedule: Q04DX003 (sc), vehicle: suspension in saline) is 199 % of control.
For `CCC1CN2C(=N1)c1ccccc1-c1cc(Cl)ccc12` (stereo unspecified), the T/C runs as follows: (dose: 12.5 mg/kg/injection, schedule: Q01DX010 (sc), vehicle: saline with Tween-80) 108 % of control; (dose: 25.0 mg/kg/injection, schedule: Q01DX010 (sc), vehicle: saline with Tween-80) 118 % of control; (dose: 50.0 mg/kg/injection, schedule: Q01DX010 (sc), vehicle: saline with Tween-80) 108 % of control.
